Test results reported in patent publication US4772618A, “Benzamides” (priority 1985, dated 1988).
Read-outs that look alike come from different tables or passages of the source.

Tests used:
[1] = system: dopamine receptors in the striatum and hypophysis; settings: cited from earlier work
[2] = target: T1, central and peripheral D2 (DA2)--dopamine receptors (Rattus norvegicus, UniProt P61169); assay: Apomorphine-induced stereotyped behaviour in the rat, intraperitoneal route; type: in vivo
T1 construct: Apomorphine-induced stereotyped behaviour in the rat, administering compounds via the intraperitoneal route; from tissue; host or cells: whole living rat (in vivo, intraperitoneal dosing)
Procedure: The pharmacological screening for undesirable effects upon central and peripheral D2 (DA2)--dopamine receptors was carried out using the following tests:
2. […]. (see Janssen, P. A. J., Niemegeers, C. J. E. and Jageneau, A. H. Arzneim. Forsch. 10, 1003-1005, 1960).

stomach emptying = assay: Stomach emptying in the rat (stomach emptying index, glass beads), oral route; type: in vivo; set-up: key: index computed from beads emptied by treated (nx) vs control (nc) rats
Procedure: Stomach emptying in the rat, administering compounds via the oral (0.1-1 mg/Kg) and intraperitoneal routes (1-10 mg/Kg), (see Jacoby, H. I. and Brodie, D. A., Gastroenterol. 52, 676-684, 1967).
A stomach emptying index was calculated as follows:
40 Glass beads (diam.perspectiveto.1 mm) administered to each rat after dosing with the test compounds at 0.1, 0.3 and 1 mg/Kg p.o. Results calculated according to the formulae: [formula] where: nc =the number of beads empited by control animals.
nx =the number of beads emptied by treated animals.
SEI=Stomach emptying index [formula]

[3] = target: T2, central and peripheral D2 (DA2)--dopamine receptors (Canis lupus familiaris, UniProt Q9GJU1); assay: Apomorphine-induced emesis in the dog, intravenous route; type: in vivo
T2 construct: Apomorphine-induced emesis in the dog, administering compounds via the intravenous route; from tissue; host or cells: whole living dog (in vivo, intravenous dosing)
Procedure: The pharmacological screening for undesirable effects upon central and peripheral D2 (DA2)--dopamine receptors was carried out using the following tests: 3. […] (see […]., High, […]., Burke, J. C. and […]. Exp. Therap., 127, 55-65, 1959).

[4] = Table 2 (with aromatic compounds), ip
[5] = Table 1, 0.1, 0.3 and 1 mg/Kg p.o.
[6] = Table 2 (with aromatic compounds), 0.1, 0.3 and 1 mg/Kg p.o.
[7] = Table 2 (with aromatic compounds)

T2 sequence (Q9GJU1 whole entry): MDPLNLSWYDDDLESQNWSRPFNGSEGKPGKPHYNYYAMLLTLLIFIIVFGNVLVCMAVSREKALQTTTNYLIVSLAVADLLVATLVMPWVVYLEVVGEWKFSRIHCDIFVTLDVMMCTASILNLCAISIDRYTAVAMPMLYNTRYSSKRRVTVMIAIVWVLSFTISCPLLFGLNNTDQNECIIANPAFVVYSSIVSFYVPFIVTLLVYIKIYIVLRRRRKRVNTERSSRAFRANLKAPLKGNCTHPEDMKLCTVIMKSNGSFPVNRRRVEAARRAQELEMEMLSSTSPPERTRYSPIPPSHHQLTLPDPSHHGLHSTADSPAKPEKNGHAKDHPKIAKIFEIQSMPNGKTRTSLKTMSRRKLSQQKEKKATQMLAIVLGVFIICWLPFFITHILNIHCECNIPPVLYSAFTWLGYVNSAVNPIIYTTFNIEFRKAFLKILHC
T1 sequence (P61169 whole entry): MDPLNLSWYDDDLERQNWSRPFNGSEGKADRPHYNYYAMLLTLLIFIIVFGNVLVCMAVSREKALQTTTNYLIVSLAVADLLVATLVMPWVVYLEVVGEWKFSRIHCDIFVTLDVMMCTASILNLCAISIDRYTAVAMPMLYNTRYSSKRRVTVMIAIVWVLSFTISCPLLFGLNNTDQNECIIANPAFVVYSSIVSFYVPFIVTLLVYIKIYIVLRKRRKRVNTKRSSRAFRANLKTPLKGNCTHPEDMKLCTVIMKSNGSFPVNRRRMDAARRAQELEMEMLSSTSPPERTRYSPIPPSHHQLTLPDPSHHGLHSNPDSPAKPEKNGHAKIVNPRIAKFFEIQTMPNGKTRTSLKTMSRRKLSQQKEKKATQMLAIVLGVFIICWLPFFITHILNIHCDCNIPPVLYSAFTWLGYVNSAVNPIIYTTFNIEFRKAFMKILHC

Antidopaminergic activity: rat stereotype behaviour induced by apomorphine, ID50 ([2]; Table 1, ip) [mg/kg] | Antidopaminergic activity: rat stereotype behaviour induced by apomorphine, ID50 [2, 4] [mg/kg] | SMILES | side effects associated with dopamine receptor blockade in some patients ([1]; in words, some patients) | Stomach emptying index in the rat via oral route (stomach emptying; [5]) | Stomach emptying index in the rat via oral route (stomach emptying; [6]) | Antidopaminergic activity: dog emesis screen, ID50 ([3]; Table 1) [mg/kg] | Antidopaminergic activity: dog emesis screen, ID50 [3, 7] [mg/kg] | side effects associated with dopamine receptor blockade in some patients ([1]; human, in vivo)
> 30.0 | – | CCCCOc1cc(N)c(Cl)cc1C(=O)NC1CCN(CC2CCCCO2)CC1 (centres unmarked) [COMPOUND 57] | – | 51.0 | – | > 1 | – | –
> 30.0 | – | COc1cc(N)c(Cl)cc1C(=O)NC1CCN(CC2COCO2)CC1 (centres unmarked) [COMPOUND 98] | – | 60.1 | – | > 1 | – | –
> 30.0 | – | CCCOc1cc(N)c(Cl)cc1C(=O)NC1CCN(CC2OCCCO2)CC1 [COMPOUND 108] | – | 51.0 | – | > 1 | – | –
> 30.0 | – | CCCCOc1cc(N)c(Cl)cc1C(=O)NC1CCN(CC2OCCCO2)CC1 [COMPOUND 109] | – | 61.3 | – | > 1 | – | –
– | 3 to 10 | COc1cc(N)c(Cl)cc1C(=O)NC1CCN(Cc2cccs2)CC1 [COMPOUND A, reference compound] | – | – | 40.3 | – | 0.01 to 0.03 | –
– | 3 to 10 | COc1cc(N)c(Cl)cc1C(=O)NC1CCN(Cc2ccco2)CC1 [COMPOUND D, reference compound] | – | – | 19.3 | – | 0.01 to 0.03 | –

Second part, the compound before the results:

SMILES | Antidopaminergic activity: rat stereotype behaviour induced by apomorphine, ID50 ([2]; Table 1, ip) [mg/kg] | Antidopaminergic activity: rat stereotype behaviour induced by apomorphine, ID50 [2, 4] [mg/kg] | side effects associated with dopamine receptor blockade in some patients ([1]; in words, some patients) | Stomach emptying index in the rat via oral route (stomach emptying; [5]) | Stomach emptying index in the rat via oral route (stomach emptying; [6]) | Antidopaminergic activity: dog emesis screen, ID50 ([3]; Table 1) [mg/kg] | Antidopaminergic activity: dog emesis screen, ID50 [3, 7] [mg/kg] | side effects associated with dopamine receptor blockade in some patients ([1]; human, in vivo)
COc1cc(N)c(Cl)cc1C(=O)NC1CCN(Cc2ccccc2)CC1 [CLEBOPRIDE, N(1benzylpiperid-4-yl)-2-methoxy-4-amino-5-chlorobenzamide, reference compound] | 0.3 | 0.3 | extrapyramidal symptoms and hyperprolactinemia related side effects in some patients | 50.0 | 50.0 | 0.0096 | 0.0096 | –
CCCOc1cc(N)c(Cl)cc1C(=O)NC1CCN(CCCC2CCCO2)CC1 (centres unmarked) [COMPOUND 39] | > 30.0 | – | – | 45.8 | – | > 1 | – | –
CCCCOc1cc(N)c(Cl)cc1C(=O)NC1CCN(CC2OCCO2)CC1 [COMPOUND 66, N-[1-[2-(1,3-dioxolanyl)methyl]piperid-4-yl]-2-butoxy-4-amino-5-chlorobenzamide] | > 30.0 | – | – | 53.7 | – | > 1 | – | –
CCCCOc1cc(N)c(Cl)cc1C(=O)NC1CCN(CC2OC(C)(C)C(C)(C)O2)CC1 [COMPOUND 91] | > 30.0 | – | – | 54.9 | – | > 1 | – | –
CCCCOc1cc(N)c(Cl)cc1C(=O)NC1CCN(CC2OC3CCCCC3O2)CC1 (centres unmarked) [COMPOUND 95] | > 30.0 | – | – | 49.0 | – | > 1 | – | –
CCCCOc1cc(N)c(Cl)cc1C(=O)NC1CCN(CC2OCCCCO2)CC1 [COMPOUND 116] | > 30.0 | – | – | 56.2 | – | > 1 | – | –
COc1cc(N)c([N+](=O)[O-])cc1C(=O)NC1CCN(Cc2cccs2)CC1 [COMPOUND B, reference compound] | – | 10 to 30 | – | – | 17.7 | – | 0.03 to 0.1 | –
COc1cc(N)c(Cl)cc1C(=O)NC1CCN(Cc2ccccn2)CC1 [COMPOUND C, reference compound] | – | 10 to 30 | – | – | 25.0 | – | 0.03 to 0.1 | –
CCN(CC)CCNC(=O)c1cc(Cl)c(N)cc1OC [METOCLOPRAMIDE, reference compound] | 5.4 | 5.4 | – | 24.7 | 24.7 | 0.0767 | 0.0767 | extrapyramidal symptoms and hyperprolactinemia related side effects in some patients
